Results published in article PMC8296573, “Synthesis and Biological Evaluation of Fingolimod Derivatives as Antibacterial Agents” (ACS Omega, 2021).
Converted amounts (≈) assume the structure as drawn. Where two headings read alike, the source gives them in different places.

Legend:
[1] = tested on: S. aureus ATCC 25923; test: Antibacterial activity, pre-exposure (planktonic cells and biofilm formation); assay type: cell-based, Staphylococcus aureus; conditions: for MIC / inhibition at 5 µM / inhibition at 10 µM / inhibition at 15 µM / inhibition at 25 µM: Staphylococcus aureus, ATCC25923; for inhibition at 5 µM / inhibition at 10 µM / inhibition at 15 µM / inhibition at 25 µM / Average inhibition %, biofilms viability / Average inhibition %, planktonic cells viability: pre-exposure, ± SD
In short: (§1)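 Growth prevention was tested by adding compounds together with the inoculum. Plates were incubated 18 h at 37 °C. Viability was read by resazurin fluorescence and biomass by crystal violet absorbance at 595 nm.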

[2] = tested on: A. baumannii NCTC 13423; test: Antibacterial activity, pre-exposure; assay type: cell-based, Acinetobacter baumannii; conditions: for Average inhibition %, biofilms viability / Average inhibition %, planktonic cells viability / inhibition at 10 µM / inhibition at 15 µM / inhibition at 25 µM / inhibition at 50 µM: A. baumannii NCTC 13423, pre-exposure, ± SD; for inhibition at 10 µM / inhibition at 15 µM / inhibition at 25 µM / inhibition at 50 µM: Acinetobacter baumannii, NCTC13423
In short: as §1

[3] = tested on: S. aureus ATCC 25923; test: Antibacterial activity, post-exposure on preformed 18-h-old biofilms; assay type: cell-based, Staphylococcus aureus; conditions: ± SD; for inhibition at 25 µM / inhibition at 50 µM / inhibition at 100 µM / inhibition at 200 µM: Staphylococcus aureus; for inhibition at 25 µM: ATCC25923, 25 µM; for inhibition at 50 µM: ATCC25923, 50 µM; for inhibition at 100 µM: ATCC25923, 100 µM; for inhibition at 200 µM: ATCC25923, 200 µM
In short: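 Biofilms grown 18 h without compound, medium then replaced and compound added for a further 24 h. Planktonic OD and resazurin (20 μM final) fluorescence (ex 560/em 590 nm) read; washed biofilms stained with 20 μM resazurin 30 min at 37 °C, then ethanol-fixed and crystal violet-stained, absorbance 595 nm.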

[4] = tested on: P. aeruginosa ATCC 9027; test: Antibacterial activity, pre-exposure; assay type: cell-based, Pseudomonas aeruginosa; conditions: for Average inhibition %, biofilms viability / Average inhibition %, planktonic cells viability / inhibition at 50 µM / inhibition at 100 µM / inhibition at 150 µM / inhibition at 200 µM: P. aeruginosa ATCC 9027, pre-exposure, ± SD; for inhibition at 50 µM / inhibition at 100 µM / inhibition at 150 µM / inhibition at 200 µM: Pseudomonas aeruginosa, ATCC9027
In short: as §1

[5] = 10 µM, read-out: Average inhibition %, biofilms biomass
[6] = 10 µM, read-out: Average inhibition %, planktonic cells turbidity
[7] = 15 µM, read-out: Average inhibition %, biofilms biomass
[8] = 15 µM, read-out: Average inhibition %, planktonic cells turbidity
[9] = 25 µM, read-out: Average inhibition %, biofilms biomass
[10] = 25 µM, read-out: Average inhibition %, planktonic cells turbidity
[11] = 50 µM, read-out: Average inhibition %, biofilms biomass
[12] = 50 µM, read-out: Average inhibition %, planktonic cells turbidity
[13] = read-out: Average inhibition %, biofilms biomass
[14] = read-out: Average inhibition %, planktonic cells turbidity

MIC ([1]; lowest concentration with no visible growth (>90% inhibition of turbidity and viability of planktonic cells), 18 h, read-out: MIC S. aureus ATCC 25923): 50 to 100 µM (≈ 17.6 to 35.2 µg/mL)
MIC ([1]; read-out: MIC (S. aureus)): 50 to 100 µM (≈ 17.6 to 35.2 µg/mL)
MIC A. baumannii NCTC 13423 ([2]; pre-exposure, Inactive = no activity up to 50 μM, > = some inhibition but no MIC reached): Inactive
MIC P. aeruginosa ATCC 9027 ([4]; pre-exposure, Inactive = no activity up to 200 μM, > = some inhibition but no MIC reached): Inactive
Compound: CCCCCCCCCCOc1ccc(CCC(N)(CO)CO)cc1 [Compound 49, 2-Amino-2-[4-(decyloxy)phenethyl]propane-1,3-diol]
inhibition at 5 µM ([1]; 5 µM, read-out: Average inhibition %, biofilms biomass): 21.1 ± 15.7%
inhibition at 5 µM ([1]; 5 µM, read-out: Average inhibition %, planktonic cells turbidity): 25 ± 31.1%
inhibition at 10 µM [1, 5]: 24.7 ± 21.7%
inhibition at 10 µM [1, 6]: 40.2 ± 21.5%
inhibition at 15 µM [1, 7]: 42.1 ± 13.8%
inhibition at 15 µM [1, 8]: 32.7 ± 33.7%
inhibition at 25 µM [1, 9]: 65 ± 8%
inhibition at 25 µM [1, 10]: 52 ± 35.7%
Average inhibition %, biofilms viability ([1]; 5 µM): 21.8 ± 13.4%
Average inhibition %, planktonic cells viability ([1]; 5 µM): 5.8 ± 6.5%
Average inhibition %, biofilms viability ([1]; 10 µM): 19.2 ± 19.6%
Average inhibition %, planktonic cells viability ([1]; 10 µM): 16 ± 20.8%
Average inhibition %, biofilms viability ([1]; 15 µM): 34.9 ± 12.5%
Average inhibition %, planktonic cells viability ([1]; 15 µM): 6.5 ± 7.4%
Average inhibition %, biofilms viability ([1]; 25 µM): 46.4 ± 5.4%
Average inhibition %, planktonic cells viability ([1]; 25 µM): 34.4 ± 41.1%
Average inhibition %, biofilms viability ([2]; 10 µM): 0 ± 0%
Average inhibition %, planktonic cells viability ([2]; 10 µM): 12 ± 4.3%
Average inhibition %, biofilms viability ([2]; 15 µM): 0 ± 0%
Average inhibition %, planktonic cells viability ([2]; 15 µM): 8.5 ± 10.6%
Average inhibition %, biofilms viability ([2]; 25 µM): 0 ± 0%
Average inhibition %, planktonic cells viability ([2]; 25 µM): 2.6 ± 4.5%
Average inhibition %, biofilms viability ([2]; 50 µM): 9 ± 8.3%
Average inhibition %, planktonic cells viability ([2]; 50 µM): 0 ± 0%
inhibition at 10 µM [2, 5]: 0%
inhibition at 10 µM [2, 6]: 0%
inhibition at 15 µM [2, 7]: 1.5 ± 2.4%
inhibition at 15 µM [2, 8]: 0%
inhibition at 25 µM [2, 9]: 1.1 ± 1.9%
inhibition at 25 µM [2, 10]: 0%
inhibition at 50 µM [2, 11]: 4.1 ± 7.2%
inhibition at 50 µM [2, 12]: 1.2 ± 2.1%
Average inhibition %, biofilms viability ([3]; 25 µM): 23.1 ± 12%
Average inhibition %, planktonic cells viability ([3]; 25 µM): 0 ± 0%
Average inhibition %, biofilms viability ([3]; 50 µM): 31.6 ± 11.1%
Average inhibition %, planktonic cells viability ([3]; 50 µM): 0 ± 0%
Average inhibition %, biofilms viability ([3]; 100 µM): 30.4 ± 13.1%
Average inhibition %, planktonic cells viability ([3]; 100 µM): 6 ± 10.4%
Average inhibition %, biofilms viability ([3]; 200 µM): 18.9 ± 12.3%
Average inhibition %, planktonic cells viability ([3]; 200 µM): 24.6 ± 9.6%
inhibition at 25 µM [3, 13]: 46.2 ± 2.6%
inhibition at 25 µM [3, 14]: 1 ± 1.8%
inhibition at 50 µM [3, 13]: 41.6 ± 16.2%
inhibition at 50 µM [3, 14]: 6.6 ± 6.1%
inhibition at 100 µM [3, 13]: 47.3 ± 10.1%
inhibition at 100 µM [3, 14]: 18.3 ± 26.2%
inhibition at 200 µM [3, 13]: 41.4 ± 16.7%
inhibition at 200 µM [3, 14]: 45 ± 23.1%
Average inhibition %, biofilms viability ([4]; 50 µM): 1.1 ± 1%
Average inhibition %, planktonic cells viability ([4]; 50 µM): 11.2 ± 5%
Average inhibition %, biofilms viability ([4]; 100 µM): 1.4 ± 1.7%
Average inhibition %, planktonic cells viability ([4]; 100 µM): 11 ± 9.5%
Average inhibition %, biofilms viability ([4]; 150 µM): 1.8 ± 2.2%
Average inhibition %, planktonic cells viability ([4]; 150 µM): 10.3 ± 10.8%
Average inhibition %, biofilms viability ([4]; 200 µM): 4.2 ± 7.4%
Average inhibition %, planktonic cells viability ([4]; 200 µM): 8.8 ± 10.7%
inhibition at 50 µM [4, 11]: 5.1 ± 7.7%
inhibition at 50 µM [4, 12]: 11.2 ± 9.7%
inhibition at 100 µM ([4]; 100 µM, read-out: Average inhibition %, biofilms biomass): 2.5 ± 1.1%
inhibition at 100 µM ([4]; 100 µM, read-out: Average inhibition %, planktonic cells turbidity): 19.8 ± 7.4%
inhibition at 150 µM ([4]; 150 µM, read-out: Average inhibition %, biofilms biomass): 2.8 ± 4.2%
inhibition at 150 µM ([4]; 150 µM, read-out: Average inhibition %, planktonic cells turbidity): 11.4 ± 10.1%
inhibition at 200 µM ([4]; 200 µM, read-out: Average inhibition %, biofilms biomass): 2.2 ± 2.8%
inhibition at 200 µM ([4]; 200 µM, read-out: Average inhibition %, planktonic cells turbidity): 16.7 ± 3%
